Results: PubChem BioAssay AID504363 (Southern Research Specialized Biocontainment Screening …, 2011)
Calls of active or inactive are those of the source.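 Rule for the calls: active = compound cutting virus infection of reporter cells by half or more at some tested dose; inactive = the rest.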

Tested on: MAGI-CCR5 HeLa cells, HIV-1 IIIB, beta-gal luminescence, 48 h
Assay: X4 HIV-1 replication inhibitors in MAGI cells, dose response, MAGI-CCR5 cells, beta-gal luminescence, 2% serum (AID 504363)

Row | IC50 | Compound
1 | 2.53 µM | Cc1c2c(=O)n(-c3nc4ccccc4s3)nc-2cc(O)n1CCC(C)C
2 | 20.5 µM | COc1ccc(CCn2c(O)cc3nn(-c4nc5ccccc5s4)c(=O)c-3c2C)cc1
3 | 35.2 µM | Cc1ccc(-n2cccc2/C=C2/C(=N)N3C(=NC2=O)SN=C3S(C)(=O)=O)cc1C
4 | 33.7 µM | CS(=O)(=O)C1=NSC2=NC(=O)/C(=C\c3cccn3-c3ccc(Cl)c(Cl)c3)C(=N)N21
5 | 2.63 µM | Cc1c2c(=O)n(-c3nc4ccccc4s3)nc-2cc(O)n1Cc1ccc(F)cc1
6 | 34.3 µM | CS(=O)(=O)C1=NSC2=NC(=O)/C(=C\c3cccn3-c3ccc(Br)cc3)C(=N)N21
7 | 3.09 µM | COc1ccc(Cn2c(O)cc3nn(-c4nc5ccccc5s4)c(=O)c-3c2C)cc1
8 | 34.1 µM | CS(=O)(=O)C1=NSC2=NC(=O)/C(=C\c3cccn3-c3cccc(C(F)(F)F)c3)C(=N)N21
9 | 2.81 µM | Cc1c2c(=O)n(-c3nc4ccccc4s3)nc-2cc(O)n1Cc1cccnc1
10 | 34.4 µM | CCOC(=O)C1=C(C)N=c2sc(=Cc3ccc(OCC(=O)O)cc3)c(=O)n2C1c1ccccc1 (stereo not drawn)
11 | 24.8 µM | O=C(O)CCCN1C(=O)/C(=C/c2cc3ccccc3o2)SC1=S
12 | 1.08 µM | Cc1c2c(=O)n(-c3nc4ccccc4s3)nc-2cc(O)n1C1CC1
13 | 4.66 µM | Cc1c2c(=O)n(-c3nc4ccccc4s3)nc-2cc(O)n1CCc1ccc(O)cc1
14 | 34.3 µM | Cc1ccc(-n2cccc2/C=C2/C(=N)N3C(=NC2=O)SN=C3S(C)(=O)=O)cc1
15 | 39.7 µM | COc1cccc(C2C(C(=O)Nc3ccccc3)=C(C)N=c3sc(=Cc4ccc(OCC(=O)O)cc4)c(=O)n32)c1 (stereo not drawn)
16 | 36.9 µM | CS(=O)(=O)C1=NSC2=NC(=O)/C(=C\c3cccn3-c3cccc(F)c3)C(=N)N21
17 | 35.7 µM | CS(=O)(=O)C1=NSC2=NC(=O)/C(=C\c3cccn3-c3cccc(Cl)c3)C(=N)N21
18 | 4.44 µM | Cc1c2c(=O)n(-c3nc4ccccc4s3)nc-2cc(O)n1Cc1ccncc1
19 | 34.3 µM | CS(=O)(=O)C1=NSC2=NC(=O)/C(=C\c3cccn3-c3cc(Cl)cc(Cl)c3)C(=N)N21
20 | 3.7 µM | Cc1c2c(=O)n(-c3nc4ccccc4s3)nc-2cc(O)n1CCc1cccs1
21 | 10.6 µM | CCOC(=O)C1=C(c2ccccc2)N=c2s/c(=C\c3ccc(OCC(=O)O)cc3)c(=O)n2C1c1cccc(OC)c1 (stereo not drawn)
22 | 4.17 µM | Cc1c2c(=O)n(-c3nc4ccccc4s3)nc-2cc(O)n1Cc1ccccc1Cl
23 | 3.25 µM | Cc1c2c(=O)n(-c3nc4ccccc4s3)nc-2cc(O)n1Cc1cccs1
24 | 34.9 µM | CS(=O)(=O)C1=NSC2=NC(=O)/C(=C\c3cccn3-c3ccc(F)cc3)C(=N)N21
25 | 36.8 µM | COc1ccc(-n2cccc2/C=C2/C(=N)N3C(=NC2=O)SN=C3S(C)(=O)=O)cc1Cl
26 | 2.59 µM | COc1ccccc1Cn1c(O)cc2nn(-c3nc4ccccc4s3)c(=O)c-2c1C
27 | 31.4 µM | COc1cccc(-n2cccc2/C=C2/C(=N)N3C(=NC2=O)SN=C3S(C)(=O)=O)c1
28 | 36.2 µM | CS(=O)(=O)C1=NSC2=NC(=O)/C(=C\c3cccn3-c3ccc(Cl)cc3)C(=N)N21
29 | 34.5 µM | CCOC(=O)C1=C(C)N=c2sc(=Cc3ccc(OCC(=O)O)cc3)c(=O)n2C1c1ccccc1OC (stereo not drawn)

More lines, now with the values behind:

Row | Compound | IC50
30 | O=C(O)CCCN1C(=O)/C(=C\c2ccc(-c3ccc(Br)cc3)o2)SC1=S | 37.9 µM
31 | O=C(O)c1ccc(C2Nc3ccc(S(=O)(=O)Nc4cc(Cl)ccc4Cl)cc3C3C=CCC32)cc1 (stereo not drawn) | 15.8 µM
32 | CC1=C(C(=O)OC(C)C)C(c2ccc(Cl)cc2)n2c(s/c(=C\c3ccc(OCC(=O)O)cc3)c2=O)=N1 (stereo not drawn) | > 100 µM (inactive)
33 | O=C(O)c1ccc(C[n+]2c(-c3ccc([N+](=O)[O-])cc3)csc2Nc2ccccc2)cc1 | 31.7 µM
34 | O=C(O)c1ccc([C@@H]2Nc3ccc(S(=O)(=O)Nc4cccc5ccccc45)cc3[C@@H]3C=CC[C@@H]32)cc1 | 11 µM
35 | O=C(O)c1ccc(C[n+]2c(-c3ccccc3)csc2Nc2ccccc2)cc1 | 53.9 µM
36 | O=C(O)CCC(C(=O)O)N1C(=O)/C(=C\c2ccco2)SC1=S (stereo not drawn) | > 100 µM (inactive)
37 | CCOC(=O)C1=C(C)N=c2sc(=Cc3ccc(OCC(=O)O)cc3)c(=O)n2C1c1ccc(F)cc1 (stereo not drawn) | 29 µM
38 | CCOC(=O)C1=C(C)N=c2s/c(=C\c3ccc(OCC(=O)O)cc3)c(=O)n2C1c1ccc(Cl)cc1 (stereo not drawn) | 24.4 µM
39 | CCOC(=O)C1=C(C)N=c2sc(=Cc3ccc(OCC(=O)O)cc3)c(=O)n2C1c1ccc(OC)cc1OC (stereo not drawn) | 33.7 µM
40 | Cc1ccc(-c2ccc(/C=C3\SC(=S)N(CCCC(=O)O)C3=O)o2)cc1 | 20.6 µM
41 | O=C(O)CCCN1C(=O)/C(=C\c2ccc(-c3ccc(F)cc3)o2)SC1=S | 20.6 µM
42 | CCOC(=O)C1=C(C)N=c2sc(=Cc3ccc(OCC(=O)O)cc3)c(=O)n2C1c1cc(OC)c(OC)c(OC)c1 (stereo not drawn) | 91.7 µM
43 | O=C(O)CCCN1C(=O)/C(=C/c2ccc(-c3ccc(Cl)c(Cl)c3)o2)SC1=S | 19.9 µM
44 | COc1ccc(-c2ccc(/C=C3\SC(=S)N(CCCC(=O)O)C3=O)o2)cc1 | 26 µM
45 | O=C(O)CCCN1C(=O)/C(=C/c2ccc(-c3cccc(C(F)(F)F)c3)o2)SC1=S | 23.4 µM
46 | COc1ccccc1NS(=O)(=O)c1ccc2c(c1)C1C=CCC1C(c1ccc(C(=O)O)cc1)N2 (stereo not drawn) | 3.93 µM
47 | O=C(O)CCCN1C(=O)/C(=C\c2ccc(-c3ccc(Cl)cc3)o2)SC1=S | 15.2 µM
48 | CCc1ccc(-c2ccc(/C=C3\SC(=S)N(CCCC(=O)O)C3=O)o2)cc1 | 14.8 µM
49 | CCOc1ccc(-n2cccc2/C=C2/C(=N)N3C(=NC2=O)SN=C3S(C)(=O)=O)cc1 | 34.4 µM
50 | Nc1sc2ccccc2[n+]1Cc1ccc(C(=O)O)cc1 | > 100 µM (inactive)
51 | CCc1ccc(-n2cccc2/C=C2/C(=N)N3C(=NC2=O)SN=C3S(C)(=O)=O)cc1 | 31.9 µM
52 | CCOC(=O)C1=C(C)N=c2s/c(=C\c3ccc(OCC(=O)O)cc3)c(=O)n2C1c1ccc(OC)c(OCC)c1 (stereo not drawn) | 30.4 µM
53 | O=C(O)CCCN1C(=O)/C(=C\c2ccc(-c3cccc(Cl)c3)o2)SC1=S | 28.7 µM
